EP4741374A1, “TREPROSTINIL DERIVATIVE, AND PREPARATION METHOD THEREFOR AND USE THEREOF” (CF PharmTech HongKong Limited, priority 2023, dated 2025)

Legend:
[1] = Stability of treprostinil derivative in ethanol/water solutions of different pH (light irradiation, 40°C, 60°C); assay type: physicochemical
Procedure: 1 mol/L hydrochloric acid and/or sodium hydroxide aqueous solution and distilled water were used to prepare 100 mL solutions with different pH values (3.0, 4.0, 5.0, 6.0, 7.0, 8.0, 9.0 and 10.0) for later use. 640 mg of compound Ia-2 was taken and added with 640 mL of 90% ethanol as a diluent to completely dissolve the compound, and then prepared into 1 mg/mL sample solution 1 for later use. • (1) […] of 90% ethanol, the sample solution 1 and 80 mL of each aqueous solution with different pH value (3.0, 5.0, 7.0 or 9.0) were taken and mixed evenly (ethanol: water =1.5: 1), and filled 2 mL per vial to obtain total 90 vials of samples, and the samples were divided into three groups equally for stability examination under the condition of light-irradiation, high-temperature of 40°C or high-temperature of 60°C. The samples of the two high-temperature stability examination groups were packaged in aluminum foil bags, 10 vials per bag; and the samples of the light-irradiation stability examination group were packaged in transparent bags, 10 vials per bag. • (2) 80 mL of 90% ethanol, the sample solution 1 and 80 mL of each aqueous solution with different pH value (4.0, 6.0, 8.0 or 10.0) were taken and mixed evenly (ethanol: water =2: 1), and then filled, grouped and packaged as above.
After the above samples were placed under conditions as described in Table-1, 15 vials of samples were taken from each group at each detection time point for detection for each pH value solution, comprising: the content of compound, the content of related substances (impurities) and liquid properties (whether there was turbidity, stratification or color change). The content of compound and the content of related substances were calculated by calculating the percentage of area occupied by the main ingredient through an area normalization method. Table-1 Placement conditions for stability examination of compound Ia-2

IP receptor = biological target: T1, IP receptor (Homo sapiens, UniProt P43119); assay: In-vitro agonist activity on IP receptor, FLIPR calcium test in IP/HEK293 cells; assay type: cell-based; details: 10 concentrations, 10-fold dilutions
T1 construct: host or cells: HEK293 (IP/HEK293 cell line)
T1 sequence (P43119 whole entry): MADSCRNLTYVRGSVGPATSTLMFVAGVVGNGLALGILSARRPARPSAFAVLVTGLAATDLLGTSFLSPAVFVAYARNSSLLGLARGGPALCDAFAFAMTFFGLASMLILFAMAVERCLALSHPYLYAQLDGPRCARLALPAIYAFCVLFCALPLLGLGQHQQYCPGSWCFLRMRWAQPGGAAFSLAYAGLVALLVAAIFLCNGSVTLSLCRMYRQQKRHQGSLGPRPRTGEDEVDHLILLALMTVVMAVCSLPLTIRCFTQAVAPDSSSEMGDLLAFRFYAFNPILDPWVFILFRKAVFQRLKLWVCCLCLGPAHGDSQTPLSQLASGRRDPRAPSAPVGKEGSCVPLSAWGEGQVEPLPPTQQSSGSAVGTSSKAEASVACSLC
Procedure: The specific method is as follows: The IP/HEK293 cell line was provided by WuXi AppTec (Shanghai) Co., Ltd. Well-grown IP/HEK293 cells were taken out from the incubator, the culture solution was aspirated, the cells were washed with D-PBS and digested with trypsin EDTA, and then added with a cell culture solution, and the cells were fully suspended by repeated pipetting. The cells were centrifuged at room temperature, the supernatant was aspirated, a culture medium was added, and the cells were resuspended by repeated pipetting with a sterile pipette. After counting living cells with Vi-CELL™, 20 µL (20,000 cells/well) of cell suspension was added to a 384-well cell culture plate and incubated in a 5% CO2 incubator at 37°C overnight. 1 mL of FLIPR test buffer was added with 77 mg of probenecid to prepare 250 mM probenecid solution. After thawing a bottle of 2XFluo-4 DirectTM (F10471), the bottle was added with 10 mL of FLIPR test buffer containing 500 uM AEBSF, and each 10 mL of Fluo-Direct was added with 0.2 mL of probenecid, with a final concentration of 2.5 mM. The mixture was vortexed and then allowed to stand in the dark for more than 5 minutes. Each compound was placed in a water bath at 25°C for 30 minutes. Then, these compounds were sequentially diluted 10-fold with Bravo, with a total of 10 concentrations, for testing. 750 nL of each compound was transferred to a 384-well compound plate with ECHO. Then, the compound plate was added with 30 µL of detection buffer. The 384-well cell culture plate was taken out from the incubator, the culture medium was discarded, and 20 µL of test buffer and 20 µL of 2X Fluo-4 DirectTM No-Wash loading buffer were added with a pipette. The cell culture plate was incubated in a 5% CO2 incubator at 37°C for 50 minutes and incubated at room temperature for 10 minutes. The cell culture plate, the compound plate and a tip box were placed into FLIPR, FLIPRTETRA test program was operated, 10 µL of reference compound and 10 µL of test compound were aspirated from the compound plate to the cell culture plate, fluorescence signals were read, and then data were processed. The data were analyzed by using Prism.

CCCCC[C@H](O)CC[C@@H]1[C@H]2Cc3cccc(OCC(=O)OCCCCCCCCOCCCCc4ccccc4)c3C[C@H]2C[C@H]1O [Compound Ia-2]
content of compound ([1]; each group (pH 3-10), placement at 40°C for 30 days): higher than 80% | content of compound ([1]; ethanol: water 1.5:1 or 2.0:1, different pH values, after placement for 10 days): higher than 95% | ethyl ester impurities ([1]; extreme conditions: pH=3, 60°C for 30 days, pH=10, 40°C for 30 days or 60°C more than 10 days): 8.0~9.0% | ethyl ester impurities ([1]; high-temperature placement, other conditions): less than 4.0% | ethyl ester impurities ([1]; light irradiation, each group, after 10 days): less than 1.80% | content of compound ([1]; solution with pH=5.0~9.0, placement at 60°C for 30 days): higher than 90% | agonist activity on IP receptor (IP receptor): no agonist activity
